ChEMBL document CHEMBL1201862, “PubChem BioAssay data set” (2004)
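How tested: cells in 96-well plates exposed to compound for 48 hours at five concentrations. At the GI50, growth is halved.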 Activity calls are given as the source filed them. Cut-off read from the data, not from the text of the source: active = GI50 up to about 1.1 µM and inactive = higher.

Columns and labels:
Experiment in all cases: inhibition of tumour cell growth, NCI panel, 48 h
KM12 = test system: KM12
SK-MEL-5 = test system: SK-MEL-5
K562 = test system: K562
HL-60 = test system: HL-60
U-251 = test system: U-251
NCI-H460 = test system: NCI-H460
SNB-19 = test system: SNB-19
SF-268 = test system: SF-268
M14 = test system: M14
CAKI-1 = test system: CAKI-1
ACHN = test system: ACHN
MDA-N = test system: MDA-N
NCI-H522 = test system: NCI-H522
OVCAR-3 = test system: OVCAR-3
MCF7 = test system: MCF7
NCI-H226 = test system: NCI-H226
MDA-MB-231 = test system: MDA-MB-231
OVCAR-5 = test system: OVCAR-5
SF-539 = test system: SF-539
HT-29 = test system: HT-29
SN12C = test system: SN12C
SNB-75 = test system: SNB-75
Malme-3M = test system: Malme-3M
OVCAR-8 = test system: OVCAR-8
UACC-257 = test system: UACC-257
NCI-H23 = test system: NCI-H23
NCI/ADR-RES = test system: NCI/ADR-RES
DU-145 = test system: DU-145
RPMI-8226 = test system: RPMI-8226
A549 = test system: A549
IGROV-1 = test system: IGROV-1
CCRF-CEM = test system: CCRF-CEM
HCT-15 = test system: HCT-15
UO-31 = test system: UO-31
MDA-MB-435 = test system: MDA-MB-435
RXF 393 = test system: RXF 393
EKVX = test system: EKVX
Hs-578T = test system: Hs-578T
SW-620 = test system: SW-620
MOLT-4 = test system: MOLT-4
SK-MEL-28 = test system: SK-MEL-28
SR = test system: SR
HOP-62 = test system: HOP-62
LOX IMVI = test system: LOX IMVI
COLO 205 = test system: COLO 205
786-0 = test system: 786-0
HCC 2998 = test system: HCC 2998
HCT-116 = test system: HCT-116
TK-10 = test system: TK-10
SF-295 = test system: SF-295
OVCAR-4 = test system: OVCAR-4
UACC-62 = test system: UACC-62
PC-3 = test system: PC-3
SK-MEL-2 = test system: SK-MEL-2
SK-OV-3 = test system: SK-OV-3
A498 = test system: A498
T47D = test system: T47D
HOP-92 = test system: HOP-92

For `CCOP(=O)(OCC)C(c1ccc(F)cc1)N(C(=O)NC(F)(F)F)c1ccc(OC)cc1` (configuration not stated), the GI50 (KM12) was > 100 µM (inactive), the GI50 (SK-MEL-5) was > 100 µM (inactive) and the GI50 (K562) was > 100 µM (inactive). The GI50 (HL-60) was > 100 µM (inactive), the GI50 (U-251) was > 100 µM (inactive) and the GI50 (NCI-H460) was > 100 µM (inactive). For the same molecule, the GI50 (SNB-19) was > 100 µM (inactive), the GI50 (SF-268) was > 100 µM (inactive) and the GI50 (M14) was > 100 µM (inactive). The GI50 (CAKI-1) was > 100 µM (inactive), the GI50 (ACHN) was > 100 µM (inactive) and the GI50 (MDA-N) was > 100 µM (inactive). For the same molecule, the GI50 (NCI-H522) was > 100 µM (inactive), the GI50 (OVCAR-3) was > 100 µM (inactive) and the GI50 (MCF7) was > 100 µM (inactive). For the same molecule, the GI50 (NCI-H226) was > 100 µM (inactive), the GI50 (MDA-MB-231) was > 100 µM (inactive) and the GI50 (OVCAR-5) was > 100 µM (inactive). The GI50 (SF-539) was > 100 µM (inactive), the GI50 (HT-29) was > 100 µM (inactive) and the GI50 (SN12C) was > 100 µM (inactive). The GI50 (SNB-75) was > 100 µM (inactive), the GI50 (Malme-3M) was > 100 µM (inactive) and the GI50 (OVCAR-8) was > 100 µM (inactive). The GI50 (UACC-257) was > 100 µM (inactive), the GI50 (NCI-H23) was > 100 µM (inactive) and the GI50 (NCI/ADR-RES) was > 100 µM (inactive). For the same molecule, the GI50 (DU-145) was > 100 µM (inactive), the GI50 (RPMI-8226) was > 100 µM (inactive) and the GI50 (A549) was > 100 µM (inactive). For the same molecule, the GI50 (IGROV-1) was > 100 µM (inactive), the GI50 (CCRF-CEM) was > 100 µM (inactive) and the GI50 (HCT-15) was greater than 100 µM. The GI50 (UO-31) was > 100 µM (inactive), the GI50 (MDA-MB-435) was > 100 µM (inactive) and the GI50 (RXF 393) was > 100 µM (inactive). For the same molecule, the GI50 (EKVX) was > 100 µM (inactive), the GI50 (Hs-578T) was > 100 µM (inactive) and the GI50 (SW-620) was > 100 µM (inactive). For the same molecule, the GI50 (MOLT-4) was > 100 µM (inactive), the GI50 (SK-MEL-28) was > 100 µM (inactive) and the GI50 (SR) was > 100 µM (inactive). The GI50 (HOP-62) was > 100 µM (inactive), the GI50 (LOX IMVI) was > 100 µM (inactive) and the GI50 (COLO 205) was > 100 µM (inactive). For the same molecule, the GI50 (786-0) was > 100 µM (inactive), the GI50 (HCC 2998) was > 100 µM (inactive) and the GI50 (HCT-116) was > 100 µM (inactive). For the same molecule, the GI50 (TK-10) was > 100 µM (inactive) and the GI50 (SF-295) was > 100 µM (inactive).
With `CC(=O)N1CC(C)(C)c2c1cc(C)c(O)c2C` the GI50 (KM12) was > 100 µM (inactive), the GI50 (SK-MEL-5) was > 100 µM (inactive) and the GI50 (K562) was > 100 µM (inactive). The GI50 (HL-60) was 86.9 µM (inactive), the GI50 (U-251) was > 100 µM (inactive) and the GI50 (OVCAR-4) was > 100 µM (inactive). The GI50 (NCI-H460) was > 100 µM (inactive), the GI50 (SNB-19) was > 100 µM (inactive) and the GI50 (SF-268) was > 100 µM (inactive). The GI50 (M14) was > 100 µM (inactive), the GI50 (ACHN) was > 100 µM (inactive) and the GI50 (MDA-N) was > 100 µM (inactive). The GI50 (NCI-H522) was > 100 µM (inactive), the GI50 (OVCAR-3) was > 100 µM (inactive) and the GI50 (MCF7) was > 100 µM (inactive). For the same molecule, the GI50 (NCI-H226) was > 100 µM (inactive), the GI50 (UACC-62) was > 100 µM (inactive) and the GI50 (MDA-MB-231) was > 100 µM (inactive). For the same molecule, the GI50 (OVCAR-5) was > 100 µM (inactive), the GI50 (SF-539) was > 100 µM (inactive) and the GI50 (HT-29) was > 100 µM (inactive). For the same molecule, the GI50 (SN12C) was > 100 µM (inactive), the GI50 (OVCAR-8) was > 100 µM (inactive) and the GI50 (UACC-257) was > 100 µM (inactive). The GI50 (NCI-H23) was > 100 µM (inactive), the GI50 (PC-3) was > 100 µM (inactive) and the GI50 (NCI/ADR-RES) was > 100 µM (inactive). For the same molecule, the GI50 (SK-MEL-2) was > 100 µM (inactive), the GI50 (DU-145) was > 100 µM (inactive) and the GI50 (RPMI-8226) was > 100 µM (inactive). For the same molecule, the GI50 (A549) was > 100 µM (inactive), the GI50 (IGROV-1) was > 100 µM (inactive) and the GI50 (CCRF-CEM) was > 100 µM (inactive). The GI50 (SK-OV-3) was > 100 µM (inactive), the GI50 (HCT-15) was greater than 100 µM and the GI50 (UO-31) was > 100 µM (inactive). The GI50 (MDA-MB-435) was > 100 µM (inactive), the GI50 (RXF 393) was > 100 µM (inactive) and the GI50 (EKVX) was > 100 µM (inactive). The GI50 (Hs-578T) was > 100 µM (inactive), the GI50 (SW-620) was > 100 µM (inactive) and the GI50 (MOLT-4) was > 100 µM (inactive). For the same molecule, the GI50 (A498) was > 100 µM (inactive), the GI50 (SK-MEL-28) was > 100 µM (inactive) and the GI50 (HOP-62) was > 100 µM (inactive). For the same molecule, the GI50 (LOX IMVI) was > 100 µM (inactive), the GI50 (COLO 205) was > 100 µM (inactive) and the GI50 (786-0) was > 100 µM (inactive). For the same molecule, the GI50 (HCC 2998) was > 100 µM (inactive), the GI50 (HCT-116) was > 100 µM (inactive) and the GI50 (TK-10) was > 100 µM (inactive). For the same molecule, the GI50 (SF-295) was > 100 µM (inactive) and the GI50 (T47D) was > 100 µM (inactive).
For `CC(=O)OCC(=O)[C@@]1(O)CC[C@H]2[C@@H]3CCC4=CC(=O)C=C[C@]4(C)[C@@]3(F)[C@@H](O)C[C@@]21C` [ISOFLUPREDONE ACETATE], the GI50 (PC-3) was 65.3 µM (inactive).
`CC1(C)OC2C(COC(c3ccccc3)(c3ccccc3)c3ccccc3)OC(c3c[nH]c4c(N)ncnc34)C2O1` (configuration not stated) was tested, and the GI50 (SK-MEL-5) was 1.58 µM (inactive), the GI50 (OVCAR-4) was 7.78 µM (inactive) and the GI50 (NCI-H460) was 3.33 µM (inactive). The GI50 (SF-268) was 5.82 µM (inactive), the GI50 (M14) was 2.76 µM (inactive) and the GI50 (HOP-92) was 5.62 µM (inactive). For the same molecule, the GI50 (ACHN) was 2.67 µM (inactive), the GI50 (MDA-N) was 3.16 µM (inactive) and the GI50 (NCI-H522) was 4.53 µM (inactive). The GI50 (OVCAR-3) was 3.13 µM (inactive), the GI50 (UACC-62) was 1.31 µM (inactive) and the GI50 (MDA-MB-231) was 13.1 µM (inactive). For the same molecule, the GI50 (HT-29) was 2.56 µM (inactive), the GI50 (SN12C) was 3.92 µM (inactive) and the GI50 (SNB-75) was 7.48 µM (inactive). For the same molecule, the GI50 (Malme-3M) was 4.92 µM (inactive), the GI50 (OVCAR-8) was 5.77 µM (inactive) and the GI50 (UACC-257) was 4.68 µM (inactive). The GI50 (PC-3) was 1.86 µM (inactive), the GI50 (NCI/ADR-RES) was 9.48 µM (inactive) and the GI50 (SK-MEL-2) was 4.89 µM (inactive). The GI50 (DU-145) was 5.6 µM (inactive), the GI50 (A549) was 3.18 µM (inactive) and the GI50 (IGROV-1) was 4.49 µM (inactive). For the same molecule, the GI50 (SK-OV-3) was 4.86 µM (inactive), the GI50 (HCT-15) was 4.06 µM and the GI50 (EKVX) was 8.61 µM (inactive). The GI50 (Hs-578T) was 5.73 µM (inactive), the GI50 (SW-620) was 3.25 µM (inactive) and the GI50 (MOLT-4) was 1.89 µM (inactive). The GI50 (SR) was 4.06 µM (inactive), the GI50 (HOP-62) was 4.86 µM (inactive) and the GI50 (LOX IMVI) was 1.6 µM (inactive). For the same molecule, the GI50 (COLO 205) was 10.7 µM (inactive), the GI50 (786-0) was 1.87 µM (inactive) and the GI50 (HCT-116) was 4.67 µM (inactive). The GI50 (SF-295) was 3 µM (inactive) and the GI50 (T47D) was 3.92 µM (inactive).
